Test [1] relates to MDA-MB-231 cells. The test can be described thus: BrdU-ELISA (DNA synthesis inhibition). The format is cell-based. As to conditions: Homo sapiens, read-out: IC50 BrdU-ELISA. As for the experimental part:
(§1) BrdU-ELISA was performed according to the protocol described by Lehmann and collaborators, and the results were used to evaluate the inhibition of DNA synthesis. A total of 1 × 10^4 cells/well were seeded in 100 µL of fresh medium into 96-well plates in triplicate at 37 °C in a humidified atmosphere of 95% air plus 5% CO2 for 24 h. Then, the medium was removed and replaced with 200 µL of medium with the same concentrations of CBD and CBDV that had been used in the previous test. In all experiments, blanks (wells with medium and without cells), negative controls (with only medium) and solvent controls (2.5% methanol) were included. The plates were incubated at 37 °C for 72 h. Then, 20 µL of 100 µM BrdU labelling solution was added to each well and incubated for 2 h at 37 °C. After removing the labelling solution, 200 µl of DNA fixing/denaturing solution was added to each well and incubated for 30 min at room temperature. After its discharge, 100 µL of the anti-BrdU-POD antibody solution [0.075 U/mL] was added to each well and incubated for 90 min at room temperature. After several washing steps with 1X PBS (200–300 µL/well), 100 µl of tetramethylbenzidine (TMB) was added to each well and incubated for 20–30 min (sufficient time for the colour change). The incorporation of BrdU into DNA was quantified spectrophotometrically at 370 nm. […] The mean absorbance of the control cells represented 100% cell proliferation, and the mean absorbance of the treated cells was related to the control values to determine cell sensitivity. Inhibition (%) of DNA synthesis/cell viability was determined as follows:2 IC%=1-OD370sample/OD370negativecontrol·100
(§2) IC50 values (representing the median concentration at which DNA synthesis and cell viability were reduced by 50%) were calculated.
(§3) All results from five independent experiments are expressed as the IC50 or EC50 as determined by analysis with Prism 5 software (GraphPad Inc., San Diego, CA, USA) and nonlinear regression (log agonist vs. normalized response-variable slope) with a 95% confidence range. Lowest observed adverse effect concentrations (LOAECs) were calculated by one-way ANOVA and Dunnett’s comparison test. Differences compared to the controls were considered significant as follows: *p < 0.05, **p < 0.001 and ***p < 0.0001.
(ELISA stands for enzyme-linked immunosorbent assay.)

A further test concerns A549 cells. The test is described as follows: BrdU-ELISA (DNA synthesis inhibition). The format is cell-based. The conditions noted are these: Homo sapiens, read-out: IC50 BrdU-ELISA. The procedure: as §1, §2, §3
Test [2] is described as follows: ABTS assay (radical scavenging). As to conditions: for TEAC (Trolox equivalent antioxidant capacity), ABTS: EC50 Trolox/EC50 sample; for ABTS scavenging capacity less than the capacity of Trolox: compared with Trolox. The procedure:
An ABTS assay was performed following the procedure described by Lavorgna et al. 2019[66]. The cationic ABTS radical (ABTS^+) was generated by oxidizing ABTS (7 mM) with potassium persulfate (140 mM K2S2O8), and the mixture was incubated for 12–16 h in the dark. The ABTS^+ working solution was diluted to an absorbance of […] OD at 734 nm. […] Distilled water was used for the blank, Trolox was used for the standard control, and methanol was used for the solvent control.
The results are expressed as the median effective concentration (EC50). Furthermore, Trolox equivalent antioxidant capacity (TEAC) values were calculated following the procedure used by Shimamura end colleagues[68]:5 TEAC=EC50Trolox/EC50sample
as §3

For test [3], the system named is MDA-MB-231 cells. The test can be described thus: MTT assay (mitochondrial metabolism). The conditions noted are these: for IC50: Homo sapiens, read-out: IC50 MTT assay. The format is cell-based, human.
From the text: (§4) MTT assay is the most commonly used method for high-throughput identification of the antiproliferative effects of compounds on cultured cells and is indirectly correlated with mitochondria-dependent apoptosis progression[59]–[61]. The production of reducing equivalents such as NADH in metabolically active cells is an indicator of “cell redox activity”, indirectly reflecting the number of viable cells[60],[61] and the mitochondrial metabolic rate in cells[62],[63].
(§5) A549, Caco-2, HepG2 and TelCOFS02MA cells (1 × 10^4 cells/well), and MDA-MB-231 cells (0.5 × 10^4 cells/well) were seeded in 100 µL of fresh medium into 96-well plates (TC-Plate 96 wells, Sarstedt, Verona, Italy) in quadruplicate for 24 h at 37 °C in a humidified atmosphere of 95% air plus 5% CO2. Then, the medium was removed and replaced with 200 µL of media with different concentrations of CBD (5–80 µM, dilution factor [DF] equal to 2) and CBDV (5.5–88 µM, DF = 2) chosen on the basis of range-finding tests (0.5, 5, and 50 mg/L). We chose 1.56–25 mg/L to be tested and, to make easier the comparison between the two cannabinoids activities, the concentrations were reported in [μM]. In all experiments, negative controls (wells containing cells exposed only to the medium) and solvent controls (wells containing cells exposed to 2.5% methanol) were included. The plates were incubated at 37 °C for three exposure times: 24, 48 and 72 h (different plates were prepared for each specific time point). Then, MTT solution (5 mg/mL) was added to each well, and the plates were re-incubated for 4 h at 37 °C. The culture medium was removed, and 2-propanol was used to dissolve formazan crystals. The absorbance of formazan was measured spectrophotometrically at 590 nm using an automated microplate reader (Synergy H1, Biotek, Winooski, USA). The results are reported as the percentages of cells with inhibited proliferation, as determined by the link between the inhibition of mitochondrial metabolic activity and proliferation. The results were calculated with the following formula:1 IC%=1-OD590sample/OD590negativecontrol·100
(§6) Furthermore, IC50 values (concentrations of the sample used to obtain an inhibition of 50% of cell growth/metabolic activity) were calculated.
as §3
(Tetrazolium assays rely on reduction of a dye to a coloured formazan, in cell work by metabolically active cells.)

In the next test the test system is TelCOFS02MA cells. The test is described as follows: MTT assay (mitochondrial metabolism). The conditions noted are these: for IC50: Homo sapiens, read-out: IC50 MTT assay. The class given is cell-based, human.
From the text: as §4, §5, §6, §3

The test system of a further test is Caco-2 cells. The test is described as follows: MTT assay (mitochondrial metabolism). As to conditions: for LOAEC MTT assay: Caco-2, same value after each exposure time (24, 48, 72 h); for IC50: Homo sapiens, read-out: IC50 MTT assay. The class given is cell-based, human.
From the text: as §4, §5, §6, §3

Test [4] is described as follows: DPPH assay (radical scavenging). As to conditions: for DPPH scavenging capacity less than the capacity of Trolox: compared with Trolox. The procedure: DPPH assay was performed following the protocol described by Brand-Williams et al.[69]. DPPH^⋅ was dissolved in methanol, generating a purple solution (101.43 µM). […] Furthermore, 940 μL of methanol and 60 μL of distilled water were used for the blank. Trolox was used as the standard control, and methanol was used as the solvent control.
The results were expressed as the median effective concentration of sample able to reduce the initial absorbance of the DPPH radical (EC50). Furthermore, TEAC values were calculated in line with Shimamura end colleagues[68] as previously reported.
as §3

Where [5] appears, read: MDA-MB-231, 72 h exposure, 95% confidence interval in brackets.

Where two headings read alike, the source gives them in different places.

With `C=C(C)[C@@H]1CCC(C)=C[C@H]1c1c(O)cc(CCCCC)cc1O` [CBD, Cannabidiol], the IC50 in the test with MDA-MB-231 cells [1] (setting [5]) was determined as 38.4 µM; in the test on A549 cells (A549, 72 h exposure, 95% confidence interval in brackets) it was 40.4 µM; in the test with MDA-MB-231 cells [3] (setting [5]), 25.8 µM; in the test on TelCOFS02MA cells (TelCOFS02MA, 72 h exposure, 95% confidence interval in brackets), 31.9 µM; in the test with Caco-2 cells (Caco-2, 72 h exposure, 95% confidence interval in brackets), 35.2 µM. Besides, the “TEAC (Trolox equivalent antioxidant capacity), ABTS” value in test [2] amounted to 0.21. For the same compound, in test [2], the “ABTS scavenging capacity less than the capacity of Trolox” value was 79%. Moreover, the “LOAEC MTT assay” value with MDA-MB-231 cells [3] (MDA-MB-231, 24 h) came out at 20 µM; with MDA-MB-231 cells [3] (MDA-MB-231, 48 h) it was 10 µM; in the test on TelCOFS02MA cells (TelCOFS02MA, same value for the entire treatment period (24, 48, 72 h)), 20 µM; in the test on Caco-2 cells, 20 µM. Also, the “DPPH scavenging capacity less than the capacity of Trolox” value in test [4] is listed as 90%.
As to `C=C(C)[C@@H]1CCC(C)=C[C@H]1c1c(O)cc(CCC)cc1O` [CBDV, cannabidivarin], the IC50 amounted to 46.8 µM in the test with MDA-MB-231 cells [1] (MDA-MB-231, 72 h); 48.6 µM in the test with A549 cells (A549, 72 h); 38.1 µM in the test on MDA-MB-231 cells [3] (MDA-MB-231, 72 h); 42.3 µM in the test on TelCOFS02MA cells (72 h); 46 µM with Caco-2 cells (Caco-2, 72 h). Besides, the “TEAC (Trolox equivalent antioxidant capacity), ABTS” value in test [2] came to 0.27. Besides, the “ABTS scavenging capacity less than the capacity of Trolox” value in test [2] is listed as 73%. Moreover, the “LOAEC MTT assay” value in the test on MDA-MB-231 cells [3] (MDA-MB-231, 24 h) came to 44 µM; in the test with MDA-MB-231 cells [3] (MDA-MB-231, 48 h), 22 µM; in the test with TelCOFS02MA cells (TelCOFS02MA, 24 h) it was 88 µM; in the test with TelCOFS02MA cells (TelCOFS02MA, 48 h) it was 44 µM; in the test on TelCOFS02MA cells (TelCOFS02MA, 72 h), 11 µM; in the test on Caco-2 cells, 44 µM. The “TEAC (Trolox equivalent antioxidant capacity), DPPH” value in test [4] (EC50 Trolox/EC50 sample) is on record as 0.09. Besides, in test [4], the “DPPH scavenging capacity less than the capacity of Trolox” value worked out at 91%.

In general, IC50 refers to the concentration needed to halve the response being measured.

The record behind these values is publication PMC8602723, “Comparative assessment of antimicrobial, antiradical and cytotoxic activities of cannabidiol and its propyl analogue cannabidivarin” (Scientific Reports, 2021).
